Measurements reported in ChEMBL document CHEMBL1201862, “PubChem BioAssay data set” (2004).
Active and inactive are the calls of the source.

Assays:
[1] = biological target: 26S proteasome non-ATPase regulatory subunit 14 (Homo sapiens, UniProt O00487); experiment: inhibition of proteasome subunit RPN11 – biochemical, fluorescence polarization, uHTS hits, confirmation (AID 602368); format: functional
[2] = biological target: 72 kDa type IV collagenase (Homo sapiens, UniProt P08253); experiment: Dose Response validation of uHTS RPN11 inhibitor hits using a MMP-2 Fluorescence assay.; format: functional
Prothrombin = Prothrombin (Bos taurus, UniProt P00735); experiment: thrombin protease inhibitors – biochemical, fluorescence polarization, uHTS hits, dose response (AID 602369); format: functional
[3] = biological target: T1, Small ubiquitin-related modifier 1 (Homo sapiens, UniProt P63165); experiment: SUMO1 protein interaction blockers, potency – biochemical, fluorescence polarization, uHTS hits, dose response (AID 624382); format: functional; conditions: read-out: IC50_Mean
[4] = biological target: T1, Small ubiquitin-related modifier 1; experiment: SUMO1 protein-protein binding blockers, potency – biochemical, FRET, dose response (AID 624383); format: functional; conditions: read-out: IC50_Mean
[5] = biological target: T2, Carboxy-terminal domain RNA polymerase II polypeptide A small phosphatase 1 (Homo sapiens, UniProt Q9GZU7); experiment: CTDSP1 inhibitors, concentration-response, biochemical, absorbance readout, ultra-high-throughput screen actives (AID 540297); format: functional
T2 sequence (Q9GZU7 whole entry): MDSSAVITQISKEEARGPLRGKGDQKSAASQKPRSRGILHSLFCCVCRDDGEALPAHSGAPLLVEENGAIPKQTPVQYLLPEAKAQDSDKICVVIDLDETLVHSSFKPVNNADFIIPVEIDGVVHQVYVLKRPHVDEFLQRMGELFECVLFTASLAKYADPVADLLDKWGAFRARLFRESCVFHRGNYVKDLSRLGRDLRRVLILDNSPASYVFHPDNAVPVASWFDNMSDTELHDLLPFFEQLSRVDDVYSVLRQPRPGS

[6] = biological target: Tyrosine-protein phosphatase non-receptor type 11 (Homo sapiens, UniProt Q06124); experiment: PTPN11 enzyme inhibitors – biochemical, selectivity assay for STEP inhibitor project, dose response (AID 602367); format: functional; conditions: read-out: IC50_Mean
[7] = biological target: Tyrosine-protein phosphatase non-receptor type 5 (Homo sapiens, UniProt P54829); experiment: PTPN5 enzyme inhibition – biochemical, fluorescence intensity, uHTS hits, confirmation (AID 602372); format: functional; conditions: read-out: IC50_Mean
[8] = biological target: Dual specificity protein phosphatase 3 (Homo sapiens, UniProt P51452); experiment: VHR phosphatase inhibition, dose response, selectivity assay for STEP inhibitor project, biochemical (AID 602374); format: functional; conditions: read-out: IC50_Mean
[9] = biological target: T3, High affinity choline transporter 1 (Homo sapiens, UniProt Q9GZV3); experiment: human choline transporter blockers, potency – cell-based, 5-point CRC, membrane potential dye, dose response (AID 504840); format: functional
T3 sequence (Q9GZV3 whole entry): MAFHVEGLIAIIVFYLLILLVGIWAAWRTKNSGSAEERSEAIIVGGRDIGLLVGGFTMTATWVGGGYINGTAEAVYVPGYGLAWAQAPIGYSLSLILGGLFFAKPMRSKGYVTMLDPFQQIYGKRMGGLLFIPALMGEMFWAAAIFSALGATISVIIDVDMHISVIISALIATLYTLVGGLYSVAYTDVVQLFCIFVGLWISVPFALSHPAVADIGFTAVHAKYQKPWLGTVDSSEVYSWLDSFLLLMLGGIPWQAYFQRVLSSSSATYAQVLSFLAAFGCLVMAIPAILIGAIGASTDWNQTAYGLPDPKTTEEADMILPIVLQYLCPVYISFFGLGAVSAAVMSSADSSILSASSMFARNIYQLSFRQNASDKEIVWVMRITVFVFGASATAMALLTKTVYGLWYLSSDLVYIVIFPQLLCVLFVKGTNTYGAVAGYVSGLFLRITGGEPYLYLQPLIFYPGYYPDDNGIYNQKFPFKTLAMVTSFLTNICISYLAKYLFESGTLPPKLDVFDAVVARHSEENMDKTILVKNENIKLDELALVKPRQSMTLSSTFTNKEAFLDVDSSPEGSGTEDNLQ

[10] = biological target: T3, High affinity choline transporter 1; experiment: human choline transporter blockers, potency – cell-based, 10-point CRC, membrane potential dye, dose response (AID 588401); format: functional;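 note: membrane potential dye fluorescence of choline-evoked depolarization via CHT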
CHO-K1 = experiment: Counterscreen for antagonists of the orexin 1 receptor (OX1R; HCRTR1): Homogeneous time resolved fluorescence (HTRF)-based cell-based dose response assay to identify antagonists of the parental CHO-K1 cell line. [Related pubchem assays (depositor defined):AID434989, AID435008, AID463079, AID485270, AID492963, AID492964, AID492965, AID493232, AID504699, AID504701]; format: functional; conditions: Cricetulus griseus;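 note: potency for inhibition of ATP-stimulated IP1 production as antagonists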
[11] = Counterscreen for antagonists of the orexin 1 receptor (OX1R; HCRTR1): Fluorescence-based cell-based high throughput dose response assay to identify antagonists of the parental CHO cell line. [Related pubchem assays (depositor defined):AID434989, AID435008, AID463079, AID485270, AID492963, AID492964, AID492965, AID493232, AID504699, AID504701]; format: functional
[12] = biological target: T4, Orexin/Hypocretin receptor type 1 (Homo sapiens, UniProt O43613); experiment: Homogeneous Time Resolved Fluorescence (HTRF)-based cell-based high throughput dose response assay for antagonists of the orexin 1 receptor (OX1R; HCRTR1). [Related pubchem assays (depositor defined):AID434989, AID435008, AID463079, AID485270, AID492963, AID492964, AID492965, AID493232, AID504717, AID504718]; format: functional
T4 sequence (O43613 whole entry): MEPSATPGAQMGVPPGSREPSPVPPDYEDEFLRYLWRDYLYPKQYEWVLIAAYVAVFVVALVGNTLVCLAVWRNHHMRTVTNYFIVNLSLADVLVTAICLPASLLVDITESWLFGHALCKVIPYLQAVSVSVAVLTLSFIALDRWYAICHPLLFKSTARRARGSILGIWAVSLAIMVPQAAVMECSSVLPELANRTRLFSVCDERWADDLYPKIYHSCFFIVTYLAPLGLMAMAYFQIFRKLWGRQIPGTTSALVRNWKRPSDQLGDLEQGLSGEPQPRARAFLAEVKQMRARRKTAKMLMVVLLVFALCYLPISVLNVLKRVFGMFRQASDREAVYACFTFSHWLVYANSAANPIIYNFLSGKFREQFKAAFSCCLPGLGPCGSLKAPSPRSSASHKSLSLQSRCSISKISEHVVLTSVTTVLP

[13] = biological target: T4, Orexin/Hypocretin receptor type 1; experiment: Fluorescence-based cell-based high throughput dose response assay for antagonists of the orexin 1 receptor (OX1R; HCRTR1). [Related pubchem assays (depositor defined):AID434989, AID435008, AID463079, AID485270, AID492963, AID492964, AID492965, AID493232, AID504717, AID504718]; format: functional
Orexin receptor type 2 [14] = biological target: T5, Orexin receptor type 2 (Homo sapiens, UniProt O43614); experiment: Counterscreen assay for antagonists of the orexin 1 receptor (OX1R; HCRTR1): Fluorescence-based cell-based dose response assay for antagonists of the orexin 2 receptor (OX2R; HCRTR2), run by assay provider.; format: functional
T5 sequence (O43614 whole entry): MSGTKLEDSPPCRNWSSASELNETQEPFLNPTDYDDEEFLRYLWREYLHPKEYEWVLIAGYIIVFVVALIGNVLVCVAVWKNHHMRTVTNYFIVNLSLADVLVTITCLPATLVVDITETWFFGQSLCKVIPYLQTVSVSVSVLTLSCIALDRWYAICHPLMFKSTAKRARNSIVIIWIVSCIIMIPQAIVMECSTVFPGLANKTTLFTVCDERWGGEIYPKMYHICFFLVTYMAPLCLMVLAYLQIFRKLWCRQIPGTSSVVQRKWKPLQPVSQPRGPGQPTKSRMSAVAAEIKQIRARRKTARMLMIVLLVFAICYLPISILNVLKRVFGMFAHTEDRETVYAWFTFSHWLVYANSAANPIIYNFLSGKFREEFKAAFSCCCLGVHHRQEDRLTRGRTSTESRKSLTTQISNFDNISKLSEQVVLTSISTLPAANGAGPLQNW

Orexin receptor type 2 [15] = biological target: T5, Orexin receptor type 2; experiment: Counterscreen assay for antagonists of the orexin 1 receptor (OX1R; HCRTR1): Homogeneous Time Resolved Fluorescence (HTRF)-based cell-based dose response assay for antagonists of the orexin 2 receptor (OX2R; HCRTR2), run by assay provider.; format: functional
[16] = biological target: Adenosylmethionine-8-amino-7-oxononanoate aminotransferase (Mycobacterium tuberculosis, UniProt P9WQ81); experiment: Mycobacterium tuberculosis BioA enzyme inhibitor Measured in Biochemical System Using Plate Reader - 2163-02_Inhibitor_Dose_CherryPick_Activity.; format: functional, Mycobacterium tuberculosis UT205
cells [17] = format: functional, cell-based
cells [18] = format: functional, cell-based; remark: listed apart in the source
[19] = biological target: ATP-dependent translocase ABCB1 (Homo sapiens, UniProt P08183); experiment: inhibition of P-gp mediated JC-1 efflux – Jurkat-DNR cells, flow cytometry, dose response (AID 1689); format: functional
[20] = test system: Streptococcus sp. 'group A'; experiment: Streptococcus pyogenes SK(-)GAS viability under kanamycin – luminescence, BacTiterGlo, confirmation, counter-screen for streptokinase expression inhibitor project, dose response (AID 1900); format: functional, organism-based
Streptokinase A = biological target: T6, Streptokinase A (Streptococcus pyogenes serotype M1, UniProt P10520); experiment: viability-normalized secreted streptokinase activity reduction – plasminogen activation absorbance, OD405, dose response (AID 1914); format: functional, Streptococcus pyogenes M1 GAS;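 note: secreted streptokinase activity via plasminogen activation per viability signal from cell pellet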
T6 sequence (P10520 whole entry): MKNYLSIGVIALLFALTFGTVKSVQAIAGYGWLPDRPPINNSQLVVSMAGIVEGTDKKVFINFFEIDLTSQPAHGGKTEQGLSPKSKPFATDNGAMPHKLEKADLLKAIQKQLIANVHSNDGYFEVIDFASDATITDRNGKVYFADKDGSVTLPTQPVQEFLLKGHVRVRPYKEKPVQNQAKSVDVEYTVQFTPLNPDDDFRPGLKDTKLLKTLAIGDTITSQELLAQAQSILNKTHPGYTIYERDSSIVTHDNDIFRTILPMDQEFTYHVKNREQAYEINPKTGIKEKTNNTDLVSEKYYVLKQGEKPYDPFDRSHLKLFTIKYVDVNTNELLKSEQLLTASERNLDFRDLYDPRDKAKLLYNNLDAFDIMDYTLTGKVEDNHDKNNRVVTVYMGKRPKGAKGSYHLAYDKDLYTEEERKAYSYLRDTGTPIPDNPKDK

Streptococcus = experiment: GAS UMAA2166 growth inhibition – luminescence, BacTiterGlo, counter-screen for streptokinase expression inhibitor project, dose response (AID 1915); format: functional, organism-based;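 note: potency for reduction of bacterial viability or growth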
[21] = biological target: DNA (cytosine-5)-methyltransferase 1 (Homo sapiens, UniProt P26358); experiment: inhibition of DNA methylation by DNMT1 – biochemical, fluorescent molecular beacon, confirmation (AID 602386); format: functional
cells [22] = experiment: cells
[23] = biological target: Protein disulfide-isomerase (Homo sapiens, UniProt P07237); experiment: inhibition of PDI-driven insulin aggregation – biochemical, turbidity, absorbance, cherry-picked samples, dose response (AID 602350); format: functional
[24] = biological target: T7, Mitochondrial peptide methionine sulfoxide reductase (Bos taurus, UniProt P54149); format: functional;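 note: absorbance read-out, biochemical high-throughput dose-response screen for MsrA inhibitors, confirmatory; recombinant bovine MsrA coupled to E. coli TrxB with NADPH and selenocystamine; potency is for inhibitors of MsrA activity on DMSO substrate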
T7 sequence (P54149 whole entry): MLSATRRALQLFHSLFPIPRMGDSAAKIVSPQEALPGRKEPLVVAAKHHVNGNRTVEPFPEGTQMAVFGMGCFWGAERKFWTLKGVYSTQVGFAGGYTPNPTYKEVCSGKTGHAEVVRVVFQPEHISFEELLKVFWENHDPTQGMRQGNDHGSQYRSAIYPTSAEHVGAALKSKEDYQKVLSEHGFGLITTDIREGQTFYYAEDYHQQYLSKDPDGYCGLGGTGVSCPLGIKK

Sequence of 26S proteasome non-ATPase regulatory subunit 14 (O00487 whole entry): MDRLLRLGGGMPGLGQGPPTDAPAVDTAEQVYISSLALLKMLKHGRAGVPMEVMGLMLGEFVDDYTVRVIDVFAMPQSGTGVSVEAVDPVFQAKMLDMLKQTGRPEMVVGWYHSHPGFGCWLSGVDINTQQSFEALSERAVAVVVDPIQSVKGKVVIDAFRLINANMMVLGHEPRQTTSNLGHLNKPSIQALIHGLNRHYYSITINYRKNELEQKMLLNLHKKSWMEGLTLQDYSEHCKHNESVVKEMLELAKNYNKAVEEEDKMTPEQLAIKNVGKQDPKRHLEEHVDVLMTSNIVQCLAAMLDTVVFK
T1 sequence (P63165 whole entry): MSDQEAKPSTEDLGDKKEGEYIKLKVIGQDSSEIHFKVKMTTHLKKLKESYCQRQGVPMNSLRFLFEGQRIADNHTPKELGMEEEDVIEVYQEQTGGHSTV
Sequence of 72 kDa type IV collagenase (P08253 whole entry): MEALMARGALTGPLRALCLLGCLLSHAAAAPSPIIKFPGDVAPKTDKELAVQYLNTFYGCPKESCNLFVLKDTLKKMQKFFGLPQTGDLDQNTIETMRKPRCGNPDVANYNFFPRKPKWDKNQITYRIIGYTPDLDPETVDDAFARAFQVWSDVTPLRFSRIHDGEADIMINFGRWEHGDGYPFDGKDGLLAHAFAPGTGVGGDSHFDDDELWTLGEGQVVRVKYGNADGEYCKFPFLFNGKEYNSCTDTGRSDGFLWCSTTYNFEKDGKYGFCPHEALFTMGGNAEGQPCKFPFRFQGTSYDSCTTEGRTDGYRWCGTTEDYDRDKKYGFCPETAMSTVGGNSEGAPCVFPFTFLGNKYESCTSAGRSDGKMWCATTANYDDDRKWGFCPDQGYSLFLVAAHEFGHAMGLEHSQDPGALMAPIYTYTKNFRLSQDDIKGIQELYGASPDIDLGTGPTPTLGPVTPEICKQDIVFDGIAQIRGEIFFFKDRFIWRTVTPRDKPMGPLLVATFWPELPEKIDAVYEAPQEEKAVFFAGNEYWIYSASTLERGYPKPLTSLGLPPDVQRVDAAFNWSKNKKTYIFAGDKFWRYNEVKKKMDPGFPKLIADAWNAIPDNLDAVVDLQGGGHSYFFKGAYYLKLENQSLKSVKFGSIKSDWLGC
Sequence of Protein disulfide-isomerase (P07237 whole entry): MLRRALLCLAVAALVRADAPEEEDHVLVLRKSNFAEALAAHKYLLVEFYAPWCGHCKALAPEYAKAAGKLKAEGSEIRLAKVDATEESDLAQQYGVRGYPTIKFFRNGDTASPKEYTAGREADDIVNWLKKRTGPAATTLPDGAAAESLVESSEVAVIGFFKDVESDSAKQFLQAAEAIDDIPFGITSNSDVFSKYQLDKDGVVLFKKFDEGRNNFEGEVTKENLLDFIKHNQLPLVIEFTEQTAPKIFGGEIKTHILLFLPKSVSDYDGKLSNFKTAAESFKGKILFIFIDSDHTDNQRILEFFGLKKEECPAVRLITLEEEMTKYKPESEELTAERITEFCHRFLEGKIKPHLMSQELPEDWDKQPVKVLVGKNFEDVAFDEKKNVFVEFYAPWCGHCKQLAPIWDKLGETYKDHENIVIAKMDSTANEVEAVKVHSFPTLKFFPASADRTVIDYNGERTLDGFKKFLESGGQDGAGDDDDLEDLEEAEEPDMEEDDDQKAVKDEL
Sequence of ATP-dependent translocase ABCB1 (P08183 whole entry): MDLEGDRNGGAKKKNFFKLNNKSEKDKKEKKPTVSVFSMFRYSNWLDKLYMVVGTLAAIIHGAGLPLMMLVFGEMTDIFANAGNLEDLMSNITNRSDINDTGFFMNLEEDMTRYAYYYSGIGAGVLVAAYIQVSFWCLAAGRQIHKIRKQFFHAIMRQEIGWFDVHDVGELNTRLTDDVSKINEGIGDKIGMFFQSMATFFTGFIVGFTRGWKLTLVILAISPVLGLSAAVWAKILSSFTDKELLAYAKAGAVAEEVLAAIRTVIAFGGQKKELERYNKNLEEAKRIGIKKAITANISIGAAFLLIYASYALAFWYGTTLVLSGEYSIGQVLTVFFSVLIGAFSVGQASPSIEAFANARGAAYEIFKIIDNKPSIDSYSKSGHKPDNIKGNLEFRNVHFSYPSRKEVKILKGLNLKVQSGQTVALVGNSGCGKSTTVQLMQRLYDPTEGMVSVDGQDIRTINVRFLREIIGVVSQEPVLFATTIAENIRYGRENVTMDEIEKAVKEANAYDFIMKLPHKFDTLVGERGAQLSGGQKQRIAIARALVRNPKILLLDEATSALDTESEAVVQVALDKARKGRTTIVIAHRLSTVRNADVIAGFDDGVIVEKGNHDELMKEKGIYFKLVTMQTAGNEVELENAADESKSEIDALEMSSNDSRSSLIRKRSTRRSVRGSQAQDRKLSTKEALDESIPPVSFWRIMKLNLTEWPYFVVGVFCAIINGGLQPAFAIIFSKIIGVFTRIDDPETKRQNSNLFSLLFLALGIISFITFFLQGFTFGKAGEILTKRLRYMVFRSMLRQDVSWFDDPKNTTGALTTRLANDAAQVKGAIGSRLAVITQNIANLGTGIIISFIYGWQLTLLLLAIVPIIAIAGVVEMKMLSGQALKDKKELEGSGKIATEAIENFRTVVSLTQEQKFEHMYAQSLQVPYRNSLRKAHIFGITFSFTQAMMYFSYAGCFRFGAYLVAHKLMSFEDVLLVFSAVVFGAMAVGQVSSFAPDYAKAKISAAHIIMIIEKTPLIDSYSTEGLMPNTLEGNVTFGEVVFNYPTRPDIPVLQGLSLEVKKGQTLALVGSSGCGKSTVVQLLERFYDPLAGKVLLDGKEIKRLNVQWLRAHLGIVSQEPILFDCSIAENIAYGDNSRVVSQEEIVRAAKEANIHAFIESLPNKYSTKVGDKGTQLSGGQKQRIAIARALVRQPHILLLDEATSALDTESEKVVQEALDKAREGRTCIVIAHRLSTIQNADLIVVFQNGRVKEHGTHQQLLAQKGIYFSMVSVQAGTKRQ
Sequence of Adenosylmethionine-8-amino-7-oxononanoate aminotransferase (P9WQ81 whole entry): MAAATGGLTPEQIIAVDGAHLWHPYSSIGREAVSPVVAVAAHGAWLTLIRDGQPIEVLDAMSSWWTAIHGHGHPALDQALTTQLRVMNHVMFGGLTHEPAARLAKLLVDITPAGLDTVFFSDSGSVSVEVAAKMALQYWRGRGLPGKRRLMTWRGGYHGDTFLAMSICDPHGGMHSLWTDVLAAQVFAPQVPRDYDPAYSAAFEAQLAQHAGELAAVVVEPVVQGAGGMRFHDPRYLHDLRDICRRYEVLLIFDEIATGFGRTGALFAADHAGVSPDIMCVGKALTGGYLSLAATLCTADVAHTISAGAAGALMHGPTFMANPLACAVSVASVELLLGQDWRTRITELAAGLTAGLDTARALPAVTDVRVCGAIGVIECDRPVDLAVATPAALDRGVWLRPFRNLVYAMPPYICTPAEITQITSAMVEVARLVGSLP
Sequence of Dual specificity protein phosphatase 3 (P51452 whole entry): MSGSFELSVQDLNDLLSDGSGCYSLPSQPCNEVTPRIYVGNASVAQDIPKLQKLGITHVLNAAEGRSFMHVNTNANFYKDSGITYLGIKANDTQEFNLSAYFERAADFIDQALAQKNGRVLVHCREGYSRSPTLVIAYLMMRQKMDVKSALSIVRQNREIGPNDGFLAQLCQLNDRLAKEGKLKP
Sequence of Tyrosine-protein phosphatase non-receptor type 11 (Q06124 whole entry): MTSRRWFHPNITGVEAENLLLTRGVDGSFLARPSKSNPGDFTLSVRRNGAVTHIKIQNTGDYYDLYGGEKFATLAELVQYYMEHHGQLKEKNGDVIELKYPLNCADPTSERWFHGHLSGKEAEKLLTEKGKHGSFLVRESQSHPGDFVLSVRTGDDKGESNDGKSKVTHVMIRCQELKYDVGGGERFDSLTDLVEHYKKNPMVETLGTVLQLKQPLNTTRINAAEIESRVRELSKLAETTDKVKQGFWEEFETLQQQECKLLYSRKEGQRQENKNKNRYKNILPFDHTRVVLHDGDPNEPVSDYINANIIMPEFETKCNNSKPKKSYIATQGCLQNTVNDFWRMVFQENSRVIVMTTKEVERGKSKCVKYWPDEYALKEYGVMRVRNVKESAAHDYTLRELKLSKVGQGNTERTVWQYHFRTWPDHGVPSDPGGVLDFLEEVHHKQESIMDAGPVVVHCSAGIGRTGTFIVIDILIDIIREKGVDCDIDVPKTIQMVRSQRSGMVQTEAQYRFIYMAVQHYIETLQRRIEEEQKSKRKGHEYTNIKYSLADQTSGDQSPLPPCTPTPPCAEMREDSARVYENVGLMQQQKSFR
Sequence of Tyrosine-protein phosphatase non-receptor type 5 (P54829 whole entry): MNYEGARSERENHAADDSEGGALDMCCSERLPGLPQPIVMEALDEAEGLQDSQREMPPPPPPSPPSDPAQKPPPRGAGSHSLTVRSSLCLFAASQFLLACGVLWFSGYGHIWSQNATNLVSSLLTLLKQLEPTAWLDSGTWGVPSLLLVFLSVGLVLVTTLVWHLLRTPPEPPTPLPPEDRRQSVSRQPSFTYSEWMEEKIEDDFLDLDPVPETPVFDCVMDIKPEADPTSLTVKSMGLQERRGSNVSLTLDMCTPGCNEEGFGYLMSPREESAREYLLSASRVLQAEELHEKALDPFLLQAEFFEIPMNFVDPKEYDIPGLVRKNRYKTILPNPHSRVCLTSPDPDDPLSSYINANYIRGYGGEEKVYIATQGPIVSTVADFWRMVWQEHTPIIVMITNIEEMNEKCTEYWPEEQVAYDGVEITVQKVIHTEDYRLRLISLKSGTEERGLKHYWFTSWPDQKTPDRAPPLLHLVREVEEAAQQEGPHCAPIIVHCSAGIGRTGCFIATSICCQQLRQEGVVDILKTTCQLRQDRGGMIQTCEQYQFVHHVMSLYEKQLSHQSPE

O=c1cc(-c2ccc(O)cc2)oc2c1ccc1ccccc12
IC50 [1]: 47.7 µM (active)
IC50 [2]: > 100 µM (inactive)
IC50 (Prothrombin): 62.2 µM (active)
IC50 [3]: > 66.6 µM (inactive)
IC50 [4]: 7.87 µM (active)

CCCCCn1c(N)c(-c2nc3ccccc3o2)c2c([N+](=O)[O-])nn(C)c(=O)c21
IC50 [5]: 3.06 µM (active)
IC50 [6]: 0.738 µM (active)
IC50 [7]: > 80 µM (inactive)
IC50 [8]: 0.343 µM (active)

Fc1ccccc1N=C(S)NNc1ncc(C(F)(F)F)cc1Cl
IC50 [9]: 10 µM (active)
IC50 [10]: 3.55 µM (active)

CCc1c(C)nc(N)nc1N1N=C1SCCOc1ccccc1
IC50 [9]: 9.19 µM (active)
IC50 [10]: 4.47 µM (active)

COc1cc(CN2CC(=O)N(c3ccccc3Cl)C2=S)cc(OC)c1OC
IC50 (CHO-K1): > 66.2 µM (inactive)
IC50 [11]: 21.4 µM (inactive)
IC50 [12]: 1.01 µM (active)
IC50 [13]: 6.26 µM (active)
IC50 (Orexin receptor type 2 [14]): > 88.8 µM (inactive)
IC50 (Orexin receptor type 2 [15]): > 50 µM (inactive)

CC(=O)Nc1ccc2[nH]c(-c3cccnc3)nc2c1
AC50 [16]: 4.1 µM (active)

Cc1ccc(-c2csc3nnc(SCC(=O)Nc4nsc(-c5ccccc5)n4)n23)cc1
IC50 (CHO-K1): > 66.2 µM (inactive)
IC50 [11]: > 49.7 µM (inactive)
IC50 [12]: 2.53 µM (active)
IC50 [13]: 5.64 µM (active)
IC50 (Orexin receptor type 2 [14]): > 88.8 µM (inactive)
IC50 (Orexin receptor type 2 [15]): 0.177 µM (active)

COc1ccc(/C=N/NC(=O)c2cccnc2)cc1CN1CCN(c2ccc(F)cc2)CC1
EC50 (cells [17]): > 350 µM (not active)
EC50 (cells [18]): > 350 µM (not active)
EC50 [19]: 1.01 µM (active)

CCOC(=O)C1=C(C)N=c2s/c(=C/c3ccc(OCC(=O)O)c(OC)c3)c(=O)n2C1c1ccc(Cl)cc1 (centres undefined)
EC50 [20]: 9.79 µM (active)
EC50 (Streptokinase A): > 150 µM (not active)
EC50 (Streptococcus): 13.2 µM (active)
IC50 [21]: 10.2 µM (active)
IC50 [1]: 11.7 µM (active)
IC50 [2]: > 100 µM (inactive)
IC50 (Prothrombin): 25.1 µM (active)
IC50 (cells [22]): 45.5 µM (active)

COc1ccccc1N1CCN(C(=O)C(=O)N/N=C/c2cccc(O)c2)CC1
AC50 [23]: 19.5 µM (active)

O=C(O)COc1ccc(/C=N/NC(=O)/C(=C/C=C/c2ccccc2)NC(=O)c2ccccc2)cc1
IC50 [24]: 103 µM (inactive)
